Read-outs that look alike come from different tables or passages of the source.
Assays:
[1] = test system: MPP1; experiment: Immunoblot of MPP1 content in PBMN cells of elderly human research participants; type: in vivo; settings: 28 days, daily dose of 60 mg
Description: For protein separation by SDS-PAGE (Laemmli system), the protein pellet can be dissolved in SDS-PAGE sample buffer supplemented with SDS. As an alternative, sample buffer for native gel electrophoresis can be added. According to the original protocol, the SDS-PAGE Laemmli sample buffer contains 2% SDS, 0.1 M DTT (or 5% mercaptoethanol). To improve disaggregation of aggregated proteins, the buffer can be supplemented without or with urea ranging from about 0 M-8 M, preferably about 6 M urea and incubated for about 10 min to 24 h, preferably about 90 min at room temperature. Proteins can be stored frozen (about […]) at a concentration ranging from about 0.01-100 mg/ml, preferably about 0.5 mg-1 mg/ml, for further use. It may be further desirable to dilute the solubilisate, for example, diluting the supernatant solubilisate by 1:1-1:20, preferably 1:5, in a suitable buffer as described above (preferably supplemented with protease inhibitors). Before immunoblot detection of proteins, proteins are separated. For separation of proteins, one- or two-dimensional SDS-PAGE can be applied. […]

[2] = Serum concentration by HPLC in healthy human research participants (phase-1 study); type: in vivo; settings: for concentration at 24 h: both sexes, human, serum, oral, 60 mg/day
Description: Dog serum concentrations of Compound-1, Compound-1F and Compound-4 were determined with serum isolated from the blood of German shepherd dogs (age: 8-9 months) taken at different time points (2 h, 4 h, 6 h, 8, 10 h, 24 h) after oral drug intake. The steady-state serum concentrations of Compound-1, Compound-1F and Compound-4 were determined in mice with blood isolated at the end of the study by cardiac puncture. Serum proteins were removed by acetonitrile precipitation, and compounds were extracted by chloroform before separation on an HPLC-C18 column (Poroshell 120 EC-C18, Agilent) with an HPLC system (Agilent 1100 Series) and detection at OD 280 nm, for Compound-1 and Compound-1F. Detection of Compound-4 was performed at OD 310 nm. The same extraction method was also used to determine Compound-1F in the serum of healthy human research participants. Dog hematology and biochemical parameters were determined by the Center of Applied Analytical and Veterinary Studies, Cairo, Egypt. ECG and blood pressure were measured by Dr. Mohamed Elsaed, Electrocardiography Unit, Faculty of Veterinary Medicine, Cairo University. The study was approved by the ethical committee of the Center of Applied and Veterinary Studies, Cairo, Egypt. Clinical laboratory parameters of human research participants were determined by the Rabaa El Adaweya Medical Central Hospital, Cairo, Egypt.
Study design: The study was a three-part phase-1, randomized, placebo-controlled study of Compound-1F. The primary end-point was safety and tolerability. Secondary objectives were plasma pharmacokinetics data (part-1, part-2, part-3) and peripheral blood mononuclear cell MPP1 status (part-3).
The first part (part-1) was a single ascending dose-effect study with three cohorts of 4 healthy research participants each, who received a single dose of 20 mg, 40 mg or 60 mg in subsequent cohorts. Three drug-treated and one placebo-treated subjects were randomized in each cohort (2 males, 2 females; age: 35-65 years). After completion of safety assessment, blood was drawn for analysis of pharmacokinetics data.
In the second part (part-2) of the study, the daily dose was increased every two days until the final dose of 60 mg/day was reached, i.e. the daily dose was 20 mg on day-1 and day-2, 40 mg on day-3 and day-4, and 60 mg on day-5 until day-14. Blood was drawn before study begin for analysis of laboratory parameters and on day-14 for analysis of laboratory parameters and determination of pharmacokinetics data, at the indicated time points after administration of the last dose of 60 mg. All study participants (n=10; 7 males, 3 females; Caucasians; age: 37-66 years; 8 participants received drug, and two received placebo) were healthy and had the possibility to withdraw from the study at any time. All study participants wanted to complete the study.
In the third part (part-3) of the study, a cohort of 8 healthy elderly voluntary research participants (7 males, 1 female; age 60-73 years; all Caucasians) received a daily oral dose of 60 mg of Compound-1F for 28 days (6 participants received drug, 2 placebo). In part-3 of the study, blood was drawn before study begin for analysis of clinical laboratory parameters and MPP1 status, and on day-28 for analysis of laboratory parameters and MPP1 status, and 24 h after the last drug intake for measurement of serum concentration of Compound-1F. […]

O=C(C1=C(O)C(c2ccc(F)cc2)N(c2ccc3c(c2)OCO3)C1=O)C1CC1 (stereo not drawn) [Compound-1F, 1-(1,3-Benzodioxol-5-yl)-4-(cyclopropanecarbonyl)-2-(4-fluorophenyl)-3-hydroxy-2H-pyrrol-5-one]
senescence marker protein MPP1 in PBMN cells vs before treatment [1]: significant decrease
concentration at 24 h ([2]; elderly research participants, 28 days once daily 60 mg, read-out: steady-state serum concentration at 24 h after the last drug intake): 1.54 ± 0.31 µg/mL
concentration at 24 h ([2]; healthy humans, repeated dosing 60 mg/day, read-out: serum concentration at 24 h after intake of the last dose): 1.47 ± 0.33 µg/mL
dose dependence of serum concentration ([2]; healthy humans, oral Compound-1F 20, 40, 60 mg): dose-dependent increase
peak serum concentration at t=6 h ([2]; healthy humans, repeated dosing 60 mg/day, n=8): 5.33 ± 0.76 µg/mL
time of peak serum concentration after drug intake ([2]; healthy humans, repeated dosing with 60 mg/day): 6 h
